Test results published in publication PMC7126861 (Bioorganic & Medicinal Chemistry Letters, 2010).

Each compound was assayed against SARS-CoV 3CL^pro (Severe acute respiratory syndrome coronavirus, UniProt P0C6X7) (assay: biochemical).
`N#Cc1c(-c2ccccc2)nc(SCc2ccccc2)[nH]c1=O` [Compound 6a] showed an IC50 greater than 50 µM. In the case of `N#Cc1c(-c2ccccc2)nc(SCCc2ccccc2)[nH]c1=O` [Compound 6b], the IC50 is reported as greater than 50 µM. `COc1ccc(-c2nc(SCc3ccccc3)[nH]c(=O)c2C#N)cc1` [Compound 6d] showed an IC50 greater than 50 µM. For `Cc1ccc(-c2nc(SCc3ccccc3)[nH]c(=O)c2C#N)cc1` [Compound 6g], the IC50 was greater than 50 µM. With `Cc1ccc(-c2nc(SCCc3ccccc3)[nH]c(=O)c2C#N)cc1` [Compound 6h] the IC50 was greater than 50 µM. In the case of `Cc1ccc(-c2nc(SCc3ccc([N+](=O)[O-])cc3)[nH]c(=O)c2C#N)cc1` [Compound 6i], the IC50 is reported as greater than 50 µM. `N#Cc1c(-c2cccc([N+](=O)[O-])c2)nc(SCCc2ccccc2)[nH]c1=O` [Compound 6j] was tested, and the IC50 was greater than 50 µM. `N#Cc1c(-c2cccc(Cl)c2)nc(SCc2ccccc2)[nH]c1=O` [Compound 6n] gave an IC50 greater than 50 µM.
